Where two headings read alike, the source gives them in different places.
Columns and labels:
[1] = acid (counterion) used in salt screen; cited from earlier work
[2] = overnight slurry in solvent, NMR analysis of recovered solids; format: physicochemical
[3] = water solubility, visual solubility estimation using pipet method; format: physicochemical; conditions: thermodynamic from solid
[4] = estimated solubility by adding test solvent in aliquots to weighed solid, visual inspection; format: physicochemical; conditions: thermodynamic from solid, read-out: Solubility
Procedure: Solubilities of the compound of Formula (I), free base, in a few solvents were estimated. The experiments were carried out by adding the test solvent in aliquots to weighed portions of solid. Whether dissolution had occurred was judged by visual inspection after addition of each solvent aliquot. Solubility numbers were calculated by dividing the weight of the sample by total amount of solvent used to dissolve the sample. The actual solubilities may be greater than the numbers calculated because of the use of solvent aliquots that were too large or because of slow dissolution rates. […] The solubility number is expressed as “greater than or equal to” if dissolution occurred on addition of the first solvent aliquot.
Solubilities of Fumarate Salt Form A are shown in Tables 8 and 9, in selected solvents and aqueous binary mixtures.
Solubilities of the compound of Formula (I), Fumarate Salt Form A, are shown in Tables 15 and 16, in selected solvents and aqueous binary mixtures.

[5] = pKa (base) of the free base compound of Formula (I); format: physicochemical
From the text: (§1) The free base compound of Formula (I) was used as a starting material. The compound of Formula (I) (MW 806.973 g/mol) is a chimeric targeting molecule that has two ligands connected by a linker.

[6] = kinetic solubility at pH 7.4; format: physicochemical; conditions: pH 7.4, aqueous buffer, kinetic from dmso stock
From the text: as §1

[7] = dynamic vapor sorption (DVS) analysis, TA Instruments Q5000, 5 to 95% RH; format: physicochemical
Procedure: For Fumarate Salt Form A, Dynamic vapor sorption (DVS) analysis was carried out using a TA Instruments Q5000 Dynamic Vapor Sorption analyser. The instrument was calibrated with standard weights and a sodium bromide standard for humidity. Approximately 10-25 mg of sample was loaded into a metal coated quartz pan for analysis. The sample was analysed at 25° C. with a maximum equilibration time of one hour in 10% relative humidity (RH) steps from 5 to 95% RH (adsorption cycle) and from 95 to 5% RH (desorption cycle). The movement from one step to the next occurred either after satisfying the equilibrium criterion of 0.01% weight change, or when the equilibrium criterion was not met after one hour. The percent weight change values were then calculated.

In the case of `O=C(O)CNC(=O)c1ccccc1` [hippuric], the pKa [1] is given as 3.55.

For `CN1CCN([C@@H]2CCCN(c3cnc(C(N)=O)c(Nc4ccc(C5CCN(CC6CCN(c7ccc(C(=O)N[C@H]8CCC(=O)NC8=O)nc7)CC6)CC5)cc4)n3)C2)C1=O.O=C(O)/C=C\C(=O)O` [Maleate Salt Form A], the “1H NMR, post-EtOH slurry” value ([2]; slurry stirred overnight in EtOH) was “Consistent with a 1:1 salt”, the “1H NMR, post-water slurry” value ([2]; slurry stirred overnight in water) was “Not consistent with 1:1 salt (0.4” and the solubility [3] was under 300 µg/mL.

`CN1CCN([C@@H]2CCCN(c3cnc(C(N)=O)c(Nc4ccc(C5CCN(CC6CCN(c7ccc(C(=O)N[C@H]8CCC(=O)NC8=O)nc7)CC6)CC5)cc4)n3)C2)C1=O` [free base compound of Formula (I)] showed a solubility ([4]; aqueous with cosolvent or surfactant or cyclodextrin, 1,4-dioxane/H2O (60/40), aw 1.0, at 60° C.) of 2000 µg/mL, a solubility ([4]; aqueous with cosolvent or surfactant or cyclodextrin, 1-pentanol/H2O (saturated) (80:20 - 2 phase system), at 60° C.) of under 3000 µg/mL and a solubility ([4]; aqueous with cosolvent or surfactant or cyclodextrin, 2-propanol/H2O (80/20), aw 0.9, at 60° C.) of under 2000 µg/mL. The solubility ([4]; aqueous with cosolvent or surfactant or cyclodextrin, acetone/H2O (70/30), aw 0.85, at 60° C.) was under 2000 µg/mL, the solubility ([4]; aqueous with cosolvent or surfactant or cyclodextrin, acetonitrile/H2O (45/55), aw 0.9, at 60° C.) was under 2000 µg/mL and the solubility ([4]; aqueous with cosolvent or surfactant or cyclodextrin, ethanol/H2O (70/30), aw 0.8, at 60° C.) was under 2000 µg/mL. It also gave a solubility ([4]; aqueous with cosolvent or surfactant or cyclodextrin, methanol/H2O (50/50), aw 0.75, at 60° C.) of under 2000 µg/mL, a solubility ([4]; aqueous with cosolvent or surfactant or cyclodextrin, tetrahydrofuran/H2O (80/20), aw 1, at RT) of 5000 µg/mL and a solubility ([4]; organic solvent or mixture, 1,2-dichloroethane, at 45° C.) of 2000 µg/mL. For the same compound, the solubility ([4]; organic solvent or mixture, 1,4-dioxane, solubility without temperature) was 6000 µg/mL, the solubility ([4]; organic solvent or mixture, 2-methyltetrahydrofuran (2-MeTHF), solubility without temperature) was under 1000 µg/mL and the solubility ([4]; organic solvent or mixture, 2-propanol (2-PrOH), solubility without temperature) was under 1000 µg/mL. For the same compound, the solubility ([4]; organic solvent or mixture, acetone, solubility without temperature) was under 1000 µg/mL, the solubility ([4]; organic solvent or mixture, acetonitrile (ACN), solubility without temperature) was under 1000 µg/mL and the solubility ([4]; organic solvent or mixture, anisole, at 60° C.) was under 1000 µg/mL. It also gave a solubility ([4]; organic solvent or mixture, cyclohexane, at 60° C.) of under 2000 µg/mL, a solubility ([4]; organic solvent or mixture, dichloromethane (DCM), solubility without temperature) of 17000 µg/mL and a solubility ([4]; organic solvent or mixture, diethyl ether (Et2O), solubility without temperature) of under 1000 µg/mL. It also gave a solubility ([4]; organic solvent or mixture, dimethylformamide (DMF), solubility without temperature) of 21000 µg/mL, a solubility ([4]; organic solvent or mixture, dimethylsulfoxide (DMSO), solubility without temperature) of 9000 µg/mL and a solubility ([4]; organic solvent or mixture, ethanol (EtOH), solubility without temperature) of under 1000 µg/mL. The solubility ([4]; organic solvent or mixture, ethyl acetate (EtOAc), solubility without temperature) was under 1000 µg/mL, the solubility ([4]; organic solvent or mixture, heptane, at 60° C.) was under 2000 µg/mL and the solubility ([4]; organic solvent or mixture, methanol (MeOH), solubility without temperature) was under 1000 µg/mL. It also gave a solubility ([4]; organic solvent or mixture, methyl acetate (MeOAc), at 60° C.) of under 1000 µg/mL, a solubility ([4]; organic solvent or mixture, methyl ethyl ketone (MEK), solubility without temperature) of under 1000 µg/mL and a solubility ([4]; organic solvent or mixture, methyl tert-butyl ether (MTBE), at 60° C.) of under 1000 µg/mL. The solubility ([4]; organic solvent or mixture, tetrahydrofuran (THF), solubility without temperature) was 9000 µg/mL, the solubility ([4]; organic solvent or mixture, toluene, at 60° C.) was under 2000 µg/mL and the solubility ([4]; water, solubility without temperature) was under 1000 µg/mL. For the same compound, the pKa [5] was about 6.5, the solubility kinetic [6] was 10 µM and the “DVS: weight gain up to 95% RH” value ([7]; 25° C.) was “approximately 7%”. For the same compound, the “DVS: hygroscopicity” value ([7]; 25° C., 5 to 95% RH) was “moderately hygroscopic” and the “Post-DVS XRPD” value ([7]; material after sorption/desorption cycle) was “unchanged”.

In the case of `O=C(O)[C@H](O)[C@@H](O)[C@H](O)[C@H](O)CO` [D-gluconic], the pKa [1] is listed as 3.76.
